ChEMBL document CHEMBL3351537, “Design, synthesis and biological evaluation of 4-fluoropyrrolidine-2-carbonitrile and octahydrocyclopenta[b]pyrrole-2-carbonitrile derivatives as dipeptidyl peptidase IV inhibitors” (Eur J Med Chem, 2014)
One block for each molecule: values may come before it. Activity calls are given as the source filed them. No cut-off for these calls is given here.

Assays:
Dipeptidyl peptidase 2 = Dipeptidyl peptidase 2 (Homo sapiens, UniProt Q9UHL4); experiment: Inhibition of DPP7 (unknown origin) expressed in baculovirus expression system using Nle-Pro-AMC as substrate by continuous fluorometric assay
Dipeptidyl peptidase 9 = Dipeptidyl peptidase 9 (Homo sapiens, UniProt Q86TI2); experiment: Inhibition of DPP9 (unknown origin) expressed in baculovirus expression system using Ala-Pro-AMC as substrate by continuous fluorometric assay
Chain of Dipeptidyl peptidase 9 (Q86TI2 whole entry): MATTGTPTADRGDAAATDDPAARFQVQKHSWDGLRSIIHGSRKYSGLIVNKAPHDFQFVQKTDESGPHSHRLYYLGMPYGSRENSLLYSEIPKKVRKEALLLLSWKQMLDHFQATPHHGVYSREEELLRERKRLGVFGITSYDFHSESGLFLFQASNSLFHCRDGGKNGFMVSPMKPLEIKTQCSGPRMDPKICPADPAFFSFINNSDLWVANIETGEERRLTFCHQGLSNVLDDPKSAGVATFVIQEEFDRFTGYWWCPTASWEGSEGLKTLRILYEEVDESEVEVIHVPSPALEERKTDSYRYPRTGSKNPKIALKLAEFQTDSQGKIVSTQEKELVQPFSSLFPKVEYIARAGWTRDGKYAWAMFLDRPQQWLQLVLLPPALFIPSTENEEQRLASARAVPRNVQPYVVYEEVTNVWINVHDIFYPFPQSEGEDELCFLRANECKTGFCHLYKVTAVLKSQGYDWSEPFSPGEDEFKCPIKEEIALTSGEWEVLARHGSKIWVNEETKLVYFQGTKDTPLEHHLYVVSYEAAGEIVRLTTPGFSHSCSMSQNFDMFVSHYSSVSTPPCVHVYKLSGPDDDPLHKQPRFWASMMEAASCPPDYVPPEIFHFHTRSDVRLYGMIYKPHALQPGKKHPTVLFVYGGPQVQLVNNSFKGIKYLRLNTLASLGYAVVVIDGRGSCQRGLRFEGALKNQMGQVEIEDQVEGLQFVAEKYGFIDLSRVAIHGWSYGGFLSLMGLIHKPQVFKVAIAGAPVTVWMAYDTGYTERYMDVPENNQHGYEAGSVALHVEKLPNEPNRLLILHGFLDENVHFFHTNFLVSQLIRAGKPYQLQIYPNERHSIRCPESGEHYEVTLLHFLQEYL

Prolyl endopeptidase FAP = target: T1, Prolyl endopeptidase FAP (Homo sapiens, UniProt Q12884); experiment: Inhibition of FAP (unknown origin) expressed in baculovirus expression system using Nle-Pro-AMC as substrate by continuous fluorometric assay; conditions: read-out: IC50
T1 sequence (Q12884 whole entry): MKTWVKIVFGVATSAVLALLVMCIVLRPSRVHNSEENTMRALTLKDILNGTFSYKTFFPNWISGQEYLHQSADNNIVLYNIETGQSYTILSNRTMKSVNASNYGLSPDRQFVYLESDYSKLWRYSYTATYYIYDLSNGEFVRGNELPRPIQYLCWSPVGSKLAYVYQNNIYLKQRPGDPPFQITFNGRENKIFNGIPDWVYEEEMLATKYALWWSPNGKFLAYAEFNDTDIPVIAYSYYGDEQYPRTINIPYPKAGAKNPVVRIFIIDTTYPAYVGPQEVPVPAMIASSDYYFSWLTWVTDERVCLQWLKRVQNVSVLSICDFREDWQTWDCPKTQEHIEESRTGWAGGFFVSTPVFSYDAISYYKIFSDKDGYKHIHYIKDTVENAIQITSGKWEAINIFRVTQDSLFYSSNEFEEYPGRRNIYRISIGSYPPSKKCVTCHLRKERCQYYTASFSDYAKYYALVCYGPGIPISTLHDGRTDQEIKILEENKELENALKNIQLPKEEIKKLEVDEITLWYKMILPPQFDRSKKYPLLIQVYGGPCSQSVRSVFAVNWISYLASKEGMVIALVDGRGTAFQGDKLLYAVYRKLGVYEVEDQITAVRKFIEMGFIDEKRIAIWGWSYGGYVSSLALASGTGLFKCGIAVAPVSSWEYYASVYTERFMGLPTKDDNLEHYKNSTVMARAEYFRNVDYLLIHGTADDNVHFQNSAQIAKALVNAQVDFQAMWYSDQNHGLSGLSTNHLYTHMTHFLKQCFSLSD

Mus musculus [1] = experiment: Reduction in random blood glucose level in C57BKS db/db mouse at 15 mg/kg/day, po (Rvb =23.3 +/- 1.0 mM); format: functional
Mus musculus [2] = experiment: Reduction in free fatty acid in C57BKS db/db mouse at 15 mg/kg/day, po (reference value: 1.46 +/- 0.10 mM); format: functional
Mus musculus [3] = experiment: Reduction in fasting blood glucose level in C57BKS db/db mouse at 15 mg/kg/day, po (Rvb =23.0 +/- 1.0 mM); format: functional
Mus musculus [4] = experiment: Reduction in total cholesterol content in C57BKS db/db mouse at 15 mg/kg/day, po; format: functional, organism-based
Mus musculus [5] = experiment: Reduction in plasma triglyceride content in C57BKS db/db mouse at 15 mg/kg/day, po (reference value: 1.01 +/- 0.09 mM); format: functional
Dipeptidyl peptidase 4 = Dipeptidyl peptidase 4 (Homo sapiens, UniProt P27487); experiment: Inhibition of human recombinant DPP4 expressed in baculovirus expression system using Ala-Pro-AMC as substrate by continuous fluorometric assay
Chain of Dipeptidyl peptidase 4 (P27487 whole entry): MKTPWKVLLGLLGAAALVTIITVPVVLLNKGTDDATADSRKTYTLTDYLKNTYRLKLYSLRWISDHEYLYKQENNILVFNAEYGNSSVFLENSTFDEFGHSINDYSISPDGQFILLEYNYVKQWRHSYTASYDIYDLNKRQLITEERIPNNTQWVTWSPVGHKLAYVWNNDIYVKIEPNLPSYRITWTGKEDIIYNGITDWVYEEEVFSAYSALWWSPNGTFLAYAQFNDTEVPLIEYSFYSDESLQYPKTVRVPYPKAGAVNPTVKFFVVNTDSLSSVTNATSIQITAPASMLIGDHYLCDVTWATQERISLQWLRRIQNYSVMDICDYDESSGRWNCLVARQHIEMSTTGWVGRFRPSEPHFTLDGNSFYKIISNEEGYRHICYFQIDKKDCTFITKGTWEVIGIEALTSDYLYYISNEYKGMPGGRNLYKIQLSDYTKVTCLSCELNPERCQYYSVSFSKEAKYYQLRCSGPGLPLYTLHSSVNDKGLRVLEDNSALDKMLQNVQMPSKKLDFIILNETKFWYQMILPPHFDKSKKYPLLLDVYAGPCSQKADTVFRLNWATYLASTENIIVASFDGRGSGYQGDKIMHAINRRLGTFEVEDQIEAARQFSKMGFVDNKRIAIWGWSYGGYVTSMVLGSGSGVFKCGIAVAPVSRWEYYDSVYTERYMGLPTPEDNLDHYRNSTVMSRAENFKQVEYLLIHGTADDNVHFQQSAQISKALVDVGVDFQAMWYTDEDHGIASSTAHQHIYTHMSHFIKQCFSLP

- IC50 (Dipeptidyl peptidase 2; read-out: IC50): 130 µM
Structure (SMILES): N#C[C@@H]1C[C@H](F)CN1C(=O)C[C@H](N)Cc1ccccc1Cl

- IC50 (Dipeptidyl peptidase 2; read-out: IC50): 193 µM
Structure (SMILES): N#C[C@@H]1C[C@H](F)CN1C(=O)C[C@H](N)Cc1ccc(F)cc1

- IC50 (Dipeptidyl peptidase 4): Not Active
Structure (SMILES): COc1ccc(C[C@@H](N)CC(=O)N2[C@H](C#N)C[C@@H]3CCC[C@@H]32)cc1

Continued, molecule first:

Structure (SMILES): N#C[C@@H]1C[C@H](F)CN1C(=O)C[C@H](N)Cc1ccccc1
- IC50 (Dipeptidyl peptidase 2): Not Active

Structure (SMILES): N#C[C@@H]1C[C@H](F)CN1C(=O)C[C@H](N)Cc1ccc(Cl)c(Cl)c1
- IC50 (Dipeptidyl peptidase 9): 0.23 µM

Structure (SMILES): Cc1ccccc1C[C@@H](N)CC(=O)N1[C@H](C#N)C[C@@H]2CCC[C@@H]21
- IC50 (Dipeptidyl peptidase 2): Not Active
- IC50 (Prolyl endopeptidase FAP): 110 µM

Structure (SMILES): N#C[C@@H]1CCCN1C(=O)CNC12CC3CC(CC(O)(C3)C1)C2 [VILDAGLIPTIN]
- Activity (Mus musculus [1]): 22.2 mM
- Activity (Mus musculus [2]): 1.07 mEq/L
- Activity (Mus musculus [3]): 18.5 mM
- Activity (Mus musculus [4]): inactive
- Activity (Mus musculus [5]): 0.75 mM
